In patent US20170008896A1, “HETEROARYL SYK INHIBITORS” (BOEHRINGER INGELHEIM INTERNATIONAL GMBH, priority 2014, published 2017):
pIC50: −log10 of the molar value. Where two headings read alike, the source gives them in different places.

Tests used:
[1] = target: T1, Recombinant human Syk (amino acids 342-635), GST fusion (Homo sapiens, UniProt P43405); assay: Syk Kinase Test (Kinase Glo luminescence); format: biochemical; settings: Table 1; read-out: SYK-inhibition IC50-value
T1 construct: Recombinant human Syk (amino acids 342-635); made in house
Procedure: (§1) The output file of the reader is a csv file that contains the well number and measured relative light units (RLU). For data evaluation and calculation, the measurement of the negative control was set as 100% ctrl and the measurement of the positive control was set as 0% ctrl. Based on this values the % value for the measurement of each substance concentration was calculated using an Assay Explorer software (Accelrys). Normally, the % ctrl values calculated are between 0% and 100% values but may also occur outside these limits in individual cases based on variability or compound characteristics. The IC50 values were calculated from the % ctrl values using Assay Explorer software.

[2] = target: T2, Recombinant human Aurora B (amino acids 1-344), His tag (Homo sapiens, UniProt Q96GD4); assay: Aurora B Kinase Test (ADP Glo luminescence); format: biochemical
T2 construct: Recombinant human Aurora B (amino acids 1-344, clone number DU1773)
Procedure: The activity of the Aurora B kinase protein was determined using the ADP Glo® Luminescence Kinase test (Promega; V9103X).
Serial Dilution is done in 1:10 steps in 100% DMSO.
Then 20 μl Kinase detection mix (Detection Buffer #V913B Promega; Kinase Detection Substrate #V914B Promega) were added and incubated for 40 minutes at room temperature.
as §1, with “measured RLU.” for “measured relative light units (RLU).”, “as 0%” for “as 100%”, “as 100%” for “as 0%”, “Explorer software.Calculation: [y=(a−d)/(1+(x/c)̂b)+d], a=low value, d=high value; x=conc M; c=IC50 M; b=hill; y=% ctrl.” for “Explorer software.”

FLT3 = target: T3, FLT3 (Homo sapiens, UniProt P36888); assay: FLT3 Kinase Test (Z'-LYTE); format: biochemical
T3 construct: purchased Invitrogen PV3182
T3 sequence (P36888 564-993 limits assumed): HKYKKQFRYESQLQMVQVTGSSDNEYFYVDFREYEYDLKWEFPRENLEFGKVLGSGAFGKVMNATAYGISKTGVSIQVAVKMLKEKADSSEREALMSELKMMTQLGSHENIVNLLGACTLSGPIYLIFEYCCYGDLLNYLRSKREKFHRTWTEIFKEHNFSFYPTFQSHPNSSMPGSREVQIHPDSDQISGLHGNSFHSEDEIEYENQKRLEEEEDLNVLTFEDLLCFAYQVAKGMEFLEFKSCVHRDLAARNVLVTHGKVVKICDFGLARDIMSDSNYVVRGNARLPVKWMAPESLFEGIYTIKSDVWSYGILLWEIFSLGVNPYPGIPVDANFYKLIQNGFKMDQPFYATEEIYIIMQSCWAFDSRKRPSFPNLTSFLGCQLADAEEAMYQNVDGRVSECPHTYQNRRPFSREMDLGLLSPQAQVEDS
Procedure: FLT3 is obtained from Invitrogen in 50 mM Tris (pH7.5); 100 mM NaCl; 0.05 mM EDTA, 0.05% NP-40, 2 mM DTT; 50% Glycerol #PV3182; Lot 286671; sequence see below). The enzyme is diluted to 720 nM (35 μg/ml) in enzyme dilution buffer and 10 μl aliquots are stored at −80° C.
The activity of FLT3 is measured using the Z′-LYTETM assay technology from Invitrogen (#PV3191)
The assay is performed in 384 black plates from Corning (#3676) in a final volume of 10 μl by adding 5 μl of kinase peptide mix and 2.5 μl of compound dilution. The reaction is started by addition of 2.5 μl of the 4×]ATP solution.
(§2) Positive controls are reaction mixtures containing no test compound; negative controls (blanks) are reaction mixtures containing no kinase. As a further control, the phosphopeptide solution is added to wells without kinase(=100% phosphorylation control). The non inhibited kinase reaction will result in a phosphorylation corresponding to 20%-30% of the phosphorylation control.
The reaction is performed for 1 h at room temperature before 5 μl of the development solution is added. After a further incubation for 1 h at room temperature 5 μl of the stop reagent is added. The plates are read on a Flex Station II 384 (Molecular Devices).
The output text file is evaluated in an “MS-Excel-VB-Makro” and “GraphPadPrism”(Version 5) (GraphPad Software Inc.) is used to calculate the results. Data for the inhibition of FLT3 are reported in M. data for the inhibition of the protease are reported in % CTL.

Human GSK3beta = target: T4, Human GSK3beta (Homo sapiens, UniProt P49841); assay: GSK 3β Kinase-Test (Z'-LYTE); format: biochemical
T4 construct: purchased University Dundee/Scotland (Dr. James Hastie, Dept. of Biochemistry); host or cells: SF21 insect cells
Procedure: Human GSK3beta (expressed and purified from SF21 cells)is obtained from the University Dundee/Scotland (Dr. James Hastie—Dept. of Biochemistry) in 50 mM Tris (pH7.5); 150 mM NaCl; 0.1 mM EGTA, 270 mM Succrose, 0.1% R-mercaptoethanol, 1 mM benzamidine, 0.2 mM PMSF; sequence see below). The enzyme is diluted to 3.56 μM (168 μg/ml) in enzyme dilution buffer and 6 μl aliquots are stored at −80° C.
The activity of GSK3β kinase protein is measured using the Z′-LYTETM assay technology from Invitrogen (#PV3324).
The assay is performed in 384 black plates from Corning (#3676) in a final volume of 10 μl by adding 5 μl of kinase peptide mix and 2.5 μl of compound dilution. The reaction is started by addition of 2.5 μl of the 4× ATP solution.
as §2, with “ATP.” for “kinase.”, “kinase and without ATP(=100%” for “kinase(=100%”
The reaction is performed 1 h at room temperature. After 1 h 5 μl of the development solution is added. After a further incubation for 1 h at room temperature 5 μl of the stop reagent is added. Finally the plates are read on a Flex Station II 384 (Molecular Devices).
The output text file is evaluated in an “MS-Excel-VB-Makro” and “Graph Pad Prism”(Version 5) (GraphPad Software Inc.) is used to calculate the results. Data for the inhibition of GSK3beta are reported in M. data for the inhibition of the protease are reported in % CTL.

[3] = Human Liver Microsomal Stability Test; format: in vitro ADME; settings: human liver microsomes, 1 μM test compound, 37° C.; for micosomal stability Cl: Table 2a
Procedure: The metabolic degradation for a specific SYK-inhibitor is performed at 37° C. with pooled human liver microsomes (human liver microsomes are commercially available as “BD UltraPool™” by Corning Life Sciences, Fogostraat 12, 1060 LJ Amsterdam, The Netherlands). The final incubation volume of 100 μl per time point contains TRIS buffer pH 7.6 at RT (0.1 M), magnesium chloride (5 mM), microsomal protein (1 mg/ml) and the test compound at a final concentration of 1 μM.
Following a short preincubation period at 37° C., the reaction is initiated by addition of beta-nicotinamide adenine dinucleotide phosphate in its reduced form (NADPH, 1 mM) and terminated by transfering an aliquot into solvent after different time points. Additionally, the NADPH-independent degradation is monitored in incubations without NADPH, terminated at the last time point.
The quenched (terminated) incubations are then pelleted by centrifugation (10000 g, 5 min).
An aliquot of the supernatant is assayed by LC-MS/MS for the remaining amount of parent compound. The half-life (t1/2 INVITRO) is determined by the slope of the semilogarithmic plot of the concentration-time profile.
The intrinsic clearance (CL_[…]) is calculated by considering the amount of protein in the incubation:
CL_[…] [μl/min/mg protein]=(Ln 2/(t1/2 INVITRO [min] * protein content [mg/ml]))*1000
The protein content [mg/ml] was determined with the “Bicinchoninic Acid Kit” of Sigma Aldrich (commercially available).
The upscaled intrinsic Clearance (CL_UP_INT) is calculated by considering the liver weight [g liver/kg body weight] and the microsomal recovery [mg protein/g liver]:
CL_UP_INT [ml/min/kg]=0.001*CL_[…]*liver weight*microsomal recovery • with microsomal recovery=45 mg protein/g liver • with liver weight=25.7 g liver/kg body weight
The percent hepatic blood flow (% Qh) is finally calculated by considering the human liver blood flow Q [ml/min/kg]:
% Qh [%]=((Q*CL_UP_INT)/(Q+CL_UP_INT)/Q)*100 • with liver blood flow (Q)=20.7 ml/min/kg.

[4] = patients with ITP (Podolanczuk et al; Blood (2009)); cited from earlier work
[5] = Table 1, read-out: AURB-inhibition IC50-value
[6] = Table 2a, compounds of the invention, read-out: AURB-inhibition IC50-value
[7] = Table 1, read-out: FLT3-inhibition IC50-value
[8] = Table 2a, compounds of the invention, read-out: GSK3-beta inhib. IC50-value
[9] = Table 2c, compounds of WO 2011/092128, read-out: IC50 (AURB-Inhibition)
[10] = Table 2c, compounds of WO 2011/092128, read-out: IC50 (FLT3-Inhibition)
[11] = Table 2c, compounds of WO 2011/092128, read-out: IC50 (GSK3beta-Inhibition)

T2 sequence (Q96GD4 whole entry, the tested form may be a part): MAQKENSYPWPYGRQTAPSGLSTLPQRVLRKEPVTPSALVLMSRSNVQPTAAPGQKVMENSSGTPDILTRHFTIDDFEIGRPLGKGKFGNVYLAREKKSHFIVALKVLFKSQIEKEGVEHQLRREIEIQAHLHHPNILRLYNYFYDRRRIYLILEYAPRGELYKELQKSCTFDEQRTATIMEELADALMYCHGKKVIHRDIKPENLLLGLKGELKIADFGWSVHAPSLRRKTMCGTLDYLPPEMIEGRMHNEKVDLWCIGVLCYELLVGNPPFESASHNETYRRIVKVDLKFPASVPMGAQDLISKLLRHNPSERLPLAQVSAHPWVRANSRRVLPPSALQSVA
T4 sequence (P49841 whole entry): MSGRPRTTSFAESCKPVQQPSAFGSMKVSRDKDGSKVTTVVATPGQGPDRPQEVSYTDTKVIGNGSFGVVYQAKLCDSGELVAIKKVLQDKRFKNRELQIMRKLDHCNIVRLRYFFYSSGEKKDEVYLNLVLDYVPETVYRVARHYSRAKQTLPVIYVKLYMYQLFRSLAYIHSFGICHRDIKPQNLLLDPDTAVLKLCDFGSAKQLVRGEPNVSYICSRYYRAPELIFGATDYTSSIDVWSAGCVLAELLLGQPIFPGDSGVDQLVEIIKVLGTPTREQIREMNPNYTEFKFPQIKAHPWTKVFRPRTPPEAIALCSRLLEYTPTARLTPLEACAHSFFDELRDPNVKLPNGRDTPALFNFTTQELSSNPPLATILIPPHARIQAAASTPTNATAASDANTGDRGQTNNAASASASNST

**Q.** Which results are given for `Cc1nc2cc(-c3cnn(C(C)(C)C)c3)cc(O[C@H](C)[C@H]3CNC(=O)C3)c2[nH]1` [Example 6, (4R)-4-[(1R)-1-[[6-(1-tert-Butylpyrazol-4-yl)-2-methyl-1H-benzimidazol-4-yl]oxy]ethyl]pyrrolidin-2-one]?
**A.** pIC50 [1]: 6.82; pIC50 [2, 5]: < 4.30; pIC50 [2, 6]: < 4.30; pIC50 (FLT3; [7]): 4.45; pIC50 (Human GSK3beta; [8]): < 5.00; micosomal stability Cl [3]: <23 % Qh

**Q.** What does the source list for `Cc1nc2cc(-c3cnn(C(C)(C)C)c3)nc(O[C@H](C)[C@H]3CNC(=O)C3)n2n1` [Example 84, (4R)-4-[(1R)-1-[[7-(1-tert-Butylpyrazol-4-yl)-2-methyl-[1,2,4]triazolo[1,5-c]pyrimidin-5-yl]oxy]ethyl]pyrrolidin-2-one]?
**A.** pIC50 [1]: 6.20; pIC50 [2, 5]: < 4.30; pIC50 [2, 6]: < 4.30; pIC50 (FLT3; [7]): < 4.30; pIC50 (FLT3; Table 2a, compounds of the invention, read-out: FLT3-inhibition IC50-value): < 4.30; pIC50 (Human GSK3beta; [8]): < 5.00; micosomal stability Cl [3]: <23 % Qh

**Q.** With `C[C@@H](Oc1nc(-c2ccc(C(F)(F)F)nc2)cc2ncccc12)[C@H]1CNC(=O)C1` [Example 3, reference compound] as the molecule, how does the pIC50 [2, 9] read?
**A.** Its pIC50 is 5.98.

**Q.** What about the pIC50 (FLT3; [10]) of the same molecule?
**A.** The pIC50 was 5.74.

**Q.** And the pIC50 (Human GSK3beta; [11])?
**A.** Its pIC50 is under 5.00.

**Q.** What about the “microsomal stability Cl” value ([3]; Table 2c) of the same molecule?
**A.** The value was 24 % Qh.

**Q.** For `CCCn1cc(-c2cc(O[C@H](C)[C@H]3CNC(=O)C3)c3cccnc3c2)cn1` [Example 114], which “microsomal stability Cl” value ([3]; Table 2b) is on record?
**A.** Its value is 26 % Qh.

**Q.** Which “microsomal stability Cl” value ([3]; Table 2b) does the source give for `CC(C)n1cc(-c2cc(O[C@H](C)[C@H]3CNC(=O)C3)c3cccnc3c2)cn1` [Example 115] here?
**A.** Its value is under 23 % Qh.

**Q.** With `Cc1cc2c(O[C@H](C)[C@H]3CNC(=O)C3)cc(-c3cnn(C(C)(C)C)c3)cn2n1` [Example 34, (4R)-4-[(1R)-1-[6-(1-tert-Butylpyrazol-4-yl)-2-methyl-pyrazolo[1,5-a]pyridin-4-yl]oxyethyl]pyrrolidin-2-one] as the molecule, how does the pIC50 [1] read?
**A.** Its pIC50 is 7.91.

**Q.** What about the pIC50 [2, 5] of the same molecule?
**A.** Its pIC50 is under 4.30.

**Q.** What about the pIC50 [2, 6] of the same molecule?
**A.** The pIC50 was under 4.30.

**Q.** And the pIC50 (FLT3; [7])?
**A.** Its pIC50 is 5.10.

**Q.** And the pIC50 (Human GSK3beta; [8])?
**A.** Its pIC50 is under 5.00.

**Q.** What about the “micosomal stability Cl” value [3] of the same molecule?
**A.** The value was under 23 % Qh.

**Q.** What does the source list for `C[C@@H](Oc1nc(-c2ccc(N3CCOCC3)nc2)cc2ncccc12)[C@H]1CNC(=O)C1` [Example 45, reference compound]?
**A.** pIC50 [2, 9]: 7.07; pIC50 (FLT3; [10]): 7.00; pIC50 (Human GSK3beta; [11]): < 5.00; microsomal stability Cl ([3]; Table 2c): 53 % Qh

**Q.** With `COc1cc(Nc2ncc(F)c(Nc3ccc4c(n3)N(COP(=O)(O)O)C(=O)C(C)(C)O4)n2)cc(OC)c1OC` [R788 (R406)] as the molecule, how does the platelet counts [4] read?
**A.** The platelet counts was “improved platelet counts”.

**Q.** For `Cc1c(-c2cc(O[C@H](C)[C@H]3CNC(=O)C3)c3cccnc3c2)cnn1C` [Example 112], which “microsomal stability Cl” value ([3]; Table 2b) is on record?
**A.** The value was under 23 % Qh.
